Assay results published in the CheMixHub viscosity set.

Assay: xn = mol fraction of the nth substance listed

CCCCCCCCCCCCO + C=CC(=O)OC
viscosity [mPa·s], 101.3 kPa
Conditions	x2 = 0.1127	x2 = 0.3078	x2 = 0.3842	x2 = 0.5147	x2 = 0.6206	x2 = 0.7884	x2 = 0.8506	x2 = 0.9093	x2 = 0.9554	x2 = 0.9794
298.15 K	11.57	5.722	4.4	2.703	1.891	0.992	0.785	0.629	0.53	0.484
308.15 K	8.309	4.391	3.385	2.157	1.515	0.833	0.668	0.549	0.473	0.438

CCCCCCCCCCCCO + C=CC(=O)OCC
viscosity [mPa·s], 101.3 kPa
Conditions	x2 = 0.0932	x2 = 0.2669	x2 = 0.3351	x2 = 0.4687	x2 = 0.5769	x2 = 0.7542	x2 = 0.8231	x2 = 0.8907	x2 = 0.9643	x2 = 0.9743
298.15 K	11.28	6.404	5.497	3.183	2.253	1.192	0.963	0.74	0.584	0.565
308.15 K	10.08	4.772	4.182	2.515	1.748	0.997	0.792	0.633	0.512	0.497

CCCCCCCCCCCCO + C=CC(=O)OCCCC
viscosity [mPa·s], 101.3 kPa
Conditions	x2 = 0.075	x2 = 0.2149	x2 = 0.2782	x2 = 0.3968	x2 = 0.5042	x2 = 0.7015	x2 = 0.7849	x2 = 0.8614	x2 = 0.9327	x2 = 0.9651
298.15 K	12.42	7.842	6.982	4.373	3.244	1.769	1.376	1.197	0.983	0.858
308.15 K	8.748	5.789	4.807	3.38	2.459	1.409	1.135	1.004	0.86	0.732

COC(=O)OCC(F)(F)F + CC1COC(=O)O1
298.15 K, 100 kPa
Conditions	viscosity [mPa·s]
x2 = 0.0999	1.13
x2 = 0.2012	1.26
x2 = 0.3	1.38
x2 = 0.3991	1.51
x2 = 0.5012	1.66
x2 = 0.6016	1.82
x2 = 0.699	2
x2 = 0.7994	2.18
x2 = 0.9002	2.36

Cc1ccc(C)cc1 + CC#N
308.15 K, 101 kPa
Conditions	viscosity [mPa·s]
x1 = 0.1008	0.3403
x1 = 0.2001	0.3636
x1 = 0.2981	0.3915
x1 = 0.3964	0.4147
x1 = 0.4985	0.4387
x1 = 0.5923	0.4603
x1 = 0.6937	0.4799
x1 = 0.7907	0.4989
x1 = 0.9051	0.5199

CC(=O)OCC[N+](C)(C)C.[Cl-] + CC(=O)CCC(=O)O
101 kPa, x2 = 0.75
Conditions	viscosity [mPa·s]
293.15 K	164.5
303.15 K	85.88
313.15 K	46.75
323.15 K	31.58

c1ccc(Nc2ccccc2)cc1 + CC(=O)O
323.15 K, 101.33 kPa
Conditions	viscosity [mPa·s]
x1 = 0.1031	1.083
x1 = 0.2023	1.242
x1 = 0.4039	2.267
x1 = 0.5079	2.799
x1 = 0.6113	3.35
x1 = 0.6724	3.714
x1 = 0.7895	4.486

Fc1ccccc1 + CC(=O)OCCC(C)C
viscosity [mPa·s], 101 kPa
Conditions	x2 = 0.0669	x2 = 0.1372	x2 = 0.2148	x2 = 0.2975	x2 = 0.3897	x2 = 0.4843	x2 = 0.5939	x2 = 0.713	x2 = 0.8486
303.15 K	0.541	0.565	0.591	0.613	0.637	0.661	0.682	0.706	0.727
313.15 K	0.48	0.501	0.524	0.543	0.561	0.579	0.597	0.613	0.629
